Values quoted from earlier work in patent publication US12202853B2, “Epoxide polyene amphoteric macrolide and process for purifying natamycin” (DSM IP ASSETS B.V., priority 2018, dated 2025).
Read-outs that look alike come from different tables or passages of the source.

## Natamycin
Neutral pH
  solubility of natamycin in water: around 40 mg/L
Neutral pH values, also printed as 40 ppm
  solubility of natamycin in water: around 0.04 g/L
